# Experiments:
# [1] = target: T1, 5-Lipoxygenase (Homo sapiens, UniProt P09917); test: 5-Lipoxygenase inhibitory activity in vitro; type: biochemical
# T1 sequence (P09917 1-674): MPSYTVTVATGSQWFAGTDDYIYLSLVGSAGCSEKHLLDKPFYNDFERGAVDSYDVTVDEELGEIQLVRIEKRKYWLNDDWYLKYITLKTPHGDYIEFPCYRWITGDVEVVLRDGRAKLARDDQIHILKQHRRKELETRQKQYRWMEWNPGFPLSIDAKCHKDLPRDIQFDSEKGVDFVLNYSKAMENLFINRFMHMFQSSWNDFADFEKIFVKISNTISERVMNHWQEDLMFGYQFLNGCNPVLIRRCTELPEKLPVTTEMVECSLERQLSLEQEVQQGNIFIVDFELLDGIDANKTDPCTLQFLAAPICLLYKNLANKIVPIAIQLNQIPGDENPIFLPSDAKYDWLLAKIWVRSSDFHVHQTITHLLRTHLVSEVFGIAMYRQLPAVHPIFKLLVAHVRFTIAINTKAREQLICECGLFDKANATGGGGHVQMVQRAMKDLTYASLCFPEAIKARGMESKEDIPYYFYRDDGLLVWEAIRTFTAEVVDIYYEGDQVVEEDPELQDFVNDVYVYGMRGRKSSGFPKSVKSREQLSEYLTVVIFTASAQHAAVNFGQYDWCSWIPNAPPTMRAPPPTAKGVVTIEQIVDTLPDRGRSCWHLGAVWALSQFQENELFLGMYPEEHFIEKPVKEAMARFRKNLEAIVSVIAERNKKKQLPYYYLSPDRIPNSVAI
# [2] = Determination of plasma half-life after intravenous injection in rats; type: in vivo; details: 1.7 mL/kg solution via jugular cannula, HPLC, elimination phase; for half-life: rat, plasma, read-out: Plasma Halflife (converted)
# Experimental: Rats were injected intravenously with a 1.7 mL/kg solution of test compound through a jugular cannula. Multiple blood samples were collected from the lateral tail vein using heparinized capillary tubes. Plasma was obtained by centrifugation and precipitation of proteins by 2 volumes of methanol was followed by centrifugation at 12000×G for 10 min. The supernatant was analyzed by HPLC using a C18 Adsorbosphere 7μm column and eluted with a mobile phase of varying amounts of acetonitrile and aqueous 8mM triethylamine acetate and 10mM acetohydroxamic acid with a flow rate of about 1mL/min and detection by UV spectroscopy. The quantitation of compounds was calculated using external standards. The halflife of a test compound was determined from the elimination phase of a graph of the log of the plasma concentration versus time.
Compound,IC50 [1] [nM],half-life [2] [min],"inhibition at 0.78 µM ([1]; 0.78 μM, read-out: 5-Lipoxygenase Inhibitory Activity (percent inhibition)) [%]","inhibition at 0.39 µM ([1]; 0.39 μM, read-out: 5-Lipoxygenase Inhibitory Activity (percent inhibition)) [%]",Plasma Halflife [2]
CC(=O)N(O)C(C)c1ccc(OCc2ccc(F)cc2)cc1 (stereo not drawn) [C],500,336,,,
"Cc1cc(C(C)N(O)C(N)=O)ccc1OC(C)c1ccccc1 (stereo not drawn) [Example 3, N-hydroxy-N-[1-(4-(1-phenylethoxy)-3-methylphenyl)ethyl]urea]",200,318,,,
CC(c1ccc(OCc2ccc(Cl)cc2)cc1)N(O)C(N)=O (stereo not drawn) [F],,276,,72,
Cc1cc(C(C)N(O)C(N)=O)ccc1OCc1ccccc1 (stereo not drawn) [A],100,162,,,
CC(Oc1ccc(C(C)N(O)C(N)=O)cc1)c1ccc(F)cc1 (stereo not drawn) [Example 32],300,432,,,

# Next, values leading:
IC50 [1] [nM],half-life [2] [min],"inhibition at 0.78 µM ([1]; 0.78 μM, read-out: 5-Lipoxygenase Inhibitory Activity (percent inhibition)) [%]","inhibition at 0.39 µM ([1]; 0.39 μM, read-out: 5-Lipoxygenase Inhibitory Activity (percent inhibition)) [%]",Plasma Halflife [2],Compound
200,468,,,,"CC(Oc1ccc(C(C)N(O)C(N)=O)cc1)c1ccc(Cl)cc1 (stereo not drawn) [Example 34, N-hydroxy-N-[1-(4-(1-(4-chlorophenyl)ethoxy)-phenyl)ethyl]urea]"
400,36,,,,Cc1cc(OCc2ccccc2)ccc1C(C)N(O)C(N)=O (stereo not drawn) [B]
,84,91,,,CC(=O)N(O)C(C)c1ccc(OCc2ccc(Cl)cc2)cc1 (stereo not drawn) [E]
400,,,,biphasic,CC(c1ccc(OCc2ccc(F)cc2)cc1)N(O)C(N)=O (stereo not drawn) [D]
600,342,,,,CC(=O)N(O)C(C)c1ccc(OC(C)c2ccc(Cl)cc2)cc1 (stereo not drawn) [Example 33]
50,72,,,,"Cc1cc(OC(C)c2ccccc2)ccc1C(C)N(O)C(N)=O (stereo not drawn) [Example 4, N-hydroxy-N-[1-(4-(1-phenylethoxy)-2-methylphenyl)ethyl]urea]"
500,744,,,,"CC(=O)N(O)C(C)c1ccc(OC(C)c2ccc(F)cc2)cc1 (stereo not drawn) [Example 31, N-Hydroxy-N-(1-(4-(1-(4-fluorophenyl)ethoxy)-phenyl)ethyl]acetamide]"
